Experimental data from US9149038B2, “4-amino-6-(heterocyclic)picolinates and 6-amino-2-(heterocyclic)pyrimidine-4-carboxylates and their use as herbicides” (Dow AgroSciences LLC, priority 2013, dated 2015).
Where two headings read alike, the source gives them in different places.

Columns and labels:
[1] = system: Key Broadleaf and Grass Weed as well as Crop Species; assay: Post-Emergent Test I: postemergent herbicidal activity, visual phytotoxicity rating 10 days after treatment (Table 5); assay type: in vivo; conditions: for Visual Growth Reduction (%) 10 Days After Application ECHCG: barnyardgrass (Echinochloa crus-galli); for pest or weed control at 4000 g/ha / pest or weed control at 3960 g/ha: post-emergence, 240 h, 10 days after application
Protocol: Herbicidal evaluations were made visually on a scale of 0 to 100 where 0 represents no activity and 100 represents complete plant death. Post-Emergent Test I: Seeds of test species were obtained from commercial suppliers and planted into a 5″-round pot containing soil-less media mix (Metro-Mix 360®, Sun Gro Horticulture). Postemergence treatments were planted 8-12 days (d) prior to application and cultured in a greenhouse equipped with supplemental light sources to provide a 16 h photoperiod at 24-29° C. All pots were surface irrigated. Approximately 10 milligrams (mg) of each compound were dissolved in 1.3 mL acetone-DMSO (97:3, volume per volume (v/v)) and diluted with 4.1 mL water-isopropanol-crop oil concentrate (78:20:2, v/v/v) containing 0.02% Triton X-155. Treatments were serial diluted with the above formulation solvent to provide 1.85, 0.926, 0.462 and 0.231 milligrams per milliliter (mg/mL) of test compound delivered in 2.7 mL/pot (roughly equivalent to 4.0, 2.0, 1.0, and 0.5 kg/ha, respectively). Formulated compounds were applied using a DeVilbiss® compressed air sprayer at 2-4 pounds per square inch (psi). Following treatment, pots were returned to the greenhouse for the duration of the experiment. All pots were sub-irrigated as needed to provide optimum growing conditions. All pots were fertilized one time per week by subirrigating with Peters Peat-Lite Special® fertilizer (20-10-20). Phytotoxicity ratings were obtained 10 days after treatment postemergence applications. All evaluations were made visually on a scale of 0 to 100 where 0 represents no activity and 100 represents complete plant death and are presented as indicated in Table 4.

[2] = system: Key Broadleaf and Grass Weed as well as Crop Species; assay: Pre-Emergent Test I: preemergent herbicidal activity, herbicidal effect rating 14 days after treatment (Table 6); assay type: in vivo; conditions: for Visual Growth Reduction (%) 14 Days After Application ECHCG: barnyardgrass (Echinochloa crus-galli); for Visual Growth Reduction (%) 14 Days After Application SETFA: giant foxtail (Setaria faberi); for Visual Growth Reduction (%) 14 Days After Application IPOHE: ivyleaf morningglory (Ipomoea hederecea); for Visual Growth Reduction (%) 14 Days After Application HELAN: sunflower (Helianthus annuus); for Visual Growth Reduction (%) 14 Days After Application AVEFA: wild oats (Avena fatua)
Protocol: Herbicidal evaluations were made visually on a scale of 0 to 100 where 0 represents no activity and 100 represents complete plant death. Pre-Emergent Test I: Seeds of test species were planted into round plastic pots (5-inch diameter) containing sandy loam soil. After planting, all pots were sub-irrigated 16 h prior to compound application. Compounds were dissolved in a 97:3 v/v mixture of acetone and DMSO and diluted to the appropriate concentration in a final application solution containing water, acetone, isopropanol, DMSO and Agri-dex (crop oil concentrate) in a 59:23:15:1.0:1.5 v/v ratio and 0.02% w/v (weight/volume) of Triton X-155 to obtain the spray solution containing the highest application rate. The high application rate was serial diluted with the above application solution to provide delivery of the compound at rates ½×, ¼× and ⅛× of the highest rate (equivalent to 4.0, 2.0, 1.0, and 0.5 kg/ha, respectively). Formulated compound (2.7 mL) was applied pipetted evenly over the soil surface followed by incorporation with water (15 mL). Following treatment, pots were returned to the greenhouse for the duration of the experiment. The greenhouse was programmed for an approximate 15 h photoperiod which was maintained at about 23-29° C. during the day and 22-28° C. during the night. Nutrients and water were added on a regular basis through surface irrigation and supplemental lighting was provided with overhead metal halide 1000-Watt lamps as necessary. Herbicidal effect ratings were obtained 14 days after treatment. All evaluations were made relative to appropriate controls on a scale of 0 to 100 where 0 represents no herbicidal effect and 100 represents plant death or lack of emergence from the soil and are presented as indicated in Table 4.

[3] = giant foxtail (Setaria faberi), 4 kg ai/ha, read-out: Visual Growth Reduction (%) 10 Days After Application SETFA
[4] = ivyleaf morningglory (Ipomoea hederecea), 4 kg ai/ha, read-out: Visual Growth Reduction (%) 10 Days After Application IPOHE
[5] = sunflower (Helianthus annuus), 4 kg ai/ha, read-out: Visual Growth Reduction (%) 10 Days After Application HELAN
[6] = wild oats (Avena fatua), 4 kg ai/ha, read-out: Visual Growth Reduction (%) 10 Days After Application AVEFA
[7] = giant foxtail (Setaria faberi), 3.96 kg ai/ha, read-out: Visual Growth Reduction (%) 10 Days After Application SETFA
[8] = ivyleaf morningglory (Ipomoea hederecea), 3.96 kg ai/ha, read-out: Visual Growth Reduction (%) 10 Days After Application IPOHE
[9] = sunflower (Helianthus annuus), 3.96 kg ai/ha, read-out: Visual Growth Reduction (%) 10 Days After Application HELAN
[10] = wild oats (Avena fatua), 3.96 kg ai/ha, read-out: Visual Growth Reduction (%) 10 Days After Application AVEFA

SMILES	Visual Growth Reduction (%) 10 Days After Application ECHCG ([1]; 4 kg ai/ha)	pest or weed control at 4000 g/ha [1, 3] [%]	pest or weed control at 4000 g/ha [1, 4] [%]	pest or weed control at 4000 g/ha [1, 5] [%]	pest or weed control at 4000 g/ha [1, 6] [%]	Visual Growth Reduction (%) 14 Days After Application ECHCG ([2]; 4 kg ai/ha)	Visual Growth Reduction (%) 14 Days After Application SETFA ([2]; 4 kg ai/ha)	Visual Growth Reduction (%) 14 Days After Application IPOHE ([2]; 4 kg ai/ha)	Visual Growth Reduction (%) 14 Days After Application HELAN ([2]; 4 kg ai/ha)	Visual Growth Reduction (%) 14 Days After Application AVEFA ([2]; 4 kg ai/ha)	Visual Growth Reduction (%) 14 Days After Application ECHCG ([2]; 3.96 kg ai/ha)	Visual Growth Reduction (%) 14 Days After Application SETFA ([2]; 3.96 kg ai/ha)	Visual Growth Reduction (%) 14 Days After Application IPOHE ([2]; 3.96 kg ai/ha)	Visual Growth Reduction (%) 14 Days After Application HELAN ([2]; 3.96 kg ai/ha)	Visual Growth Reduction (%) 14 Days After Application AVEFA ([2]; 3.96 kg ai/ha)	Visual Growth Reduction (%) 10 Days After Application ECHCG ([1]; 3.96 kg ai/ha)	pest or weed control at 3960 g/ha [1, 7] [%]	pest or weed control at 3960 g/ha [1, 8] [%]	pest or weed control at 3960 g/ha [1, 9] [%]	pest or weed control at 3960 g/ha [1, 10] [%]
Nc1c(Cl)c(C(=O)O)nc(-c2cc3c(cc2F)OC(F)(F)O3)c1Cl [Compound 3]	C (75-84)	75 to 84	75 to 84	75 to 84	75 to 84	–	–	–	–	–	–	–	–	–	–	–	–	–	–	–
Nc1c(Cl)c(C(=O)O)nc(-c2ccc3c(c2F)OC(F)(F)O3)c1Cl [Compound 5]	G (0-29)	75 to 84	95 to 100	95 to 100	0 to 29	–	–	–	–	–	–	–	–	–	–	–	–	–	–	–
COC(=O)c1nc(-c2cccc3c2OCO3)c(F)c(N)c1Cl [Compound 71, Methyl 4-amino-6-(benzo[d][1,3]dioxol-4-yl)-3-chloro-5-fluoropicolinate]	G (0-29)	0 to 29	75 to 84	95 to 100	0 to 29	F (30-44)	G (0-29)	E (45-59)	A (95-100)	F (30-44)	–	–	–	–	–	–	–	–	–	–
Nc1c(F)c(-c2cccc3c2OCO3)nc(C(=O)O)c1Cl [Compound 72, 4-Amino-6-(benzo[d][1,3]dioxol-4-yl)-3-chloro-5-fluoropicolinic acid]	G (0-29)	0 to 29	0 to 29	95 to 100	0 to 29	C (75-84)	G (0-29)	G (0-29)	A (95-100)	D (60-74)	–	–	–	–	–	–	–	–	–	–
COC(=O)c1nc(-c2cccc3c2OC(F)(F)O3)c(F)c(N)c1Cl [Compound 73]	–	–	–	–	–	–	–	–	–	–	G (0-29)	G (0-29)	C (75-84)	A (95-100)	G (0-29)	G (0-29)	0 to 29	75 to 84	95 to 100	0 to 29
Nc1c(F)c(-c2cccc3c2OC(F)(F)O3)nc(C(=O)O)c1Cl [Compound 74]	–	–	–	–	–	–	–	–	–	–	A (95-100)	E (45-59)	D (60-74)	A (95-100)	D (60-74)	–	0 to 29	60 to 74	95 to 100	0 to 29
